# Measurements as given in patent publication US5171837A, “Peptide capable of binding interleukin 6 and an adsorbent comprising the peptide immobilized on a carrier” (Kuraray Co., Ltd., priority 1989, dated 1992).
# Non-standard residues stand in square brackets, D forms with d. Residues, ends and D or L forms follow the SMILES beside them. No end group written: not given here. *: point of attachment. X1 = NCCCCCCCCCCCCCCCCCC(=O)*; 12Ado = NCCCCCCCCCCCC(=O)O
# Target: T1, IL-6 (Homo sapiens, UniProt P05231)
# T1 construct: purchased Genzyme Corp
# T1 sequence (P05231 30-212): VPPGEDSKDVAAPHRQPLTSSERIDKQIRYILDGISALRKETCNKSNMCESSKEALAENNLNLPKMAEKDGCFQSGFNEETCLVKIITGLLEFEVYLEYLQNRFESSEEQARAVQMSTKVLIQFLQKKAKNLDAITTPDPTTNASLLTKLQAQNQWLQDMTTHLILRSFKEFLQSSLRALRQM
# Assay: Activity for inhibition of binding of IL-6 to receptor by peptide (IL-6 receptor expression cells, FITC labeled anti-IL-6 antibody)
# Details: 5 μg of the peptide, 50 ng of IL-6, 10^5 IL-6 receptor expression cells, 4° C for one hour
# Method: A human lymphocyte fraction was obtained from human peripheral blood with Ficoll-Paque (manufactured by Pharmacia-LKB). The fraction was reacted with a cultured supernatant of Epstein-Barr Virus producing cell strain B958 to transform the human lymphocytes to obtain IL-6 receptor expression cells.
# 1 mg of anti-human IL-6 antibody [Rabbit Anti-human Interleukin-6, manufactured by Genzyme Corp.] was dissolved in a 0.05M carbonate buffer solution (pH: 9.5) and to the resulting solution was added 10 μg of FITC [Fluorescein isothiocyanate, manufactured by Sigma Corp.]. The mixture was stirred at 4° C. overnight. The resulting solution was passed through PD-10 column (manufactured by Pharmacia-LKB) to obtain FITC labeled anti-IL-6 antibody as a firstly eluted fraction.
# 10^5 IL-6 receptor expression cells were suspended in 0.5 % BSA (bovine serum albumin, manufactured by Sigma Corp.)-PBS (a phosphate buffer solution containing 0.15 M sodium chloride, pH 7.4) and to the resulting suspension were added 50 ng of IL-6 (Human recombinant interleukin-6, manufactured by Genzyme Corp.) and 5 μg of the peptide obtained in any one of Examples 1 to 96. The suspension was allowed to stand at 4° C for one hour. Then, after washing the cells centrifugally with 0.5% BSA-PBS three times (1200 rpm, 5 min.), 1 μg of FITC labeled anti-IL-6 antibody was added and the mixture was allowed to stand at 4° C. for 30 minutes. After washing with 0.5% BSA-PBS three times, the intensity of fluorescence of the cells was determined. The binding inhibition activity of the peptide of each Example was evaluated, by taking the value obtained without addition of the peptide as a control and taking the value- obtained without addition of IL-6 as a blank, according to the following formula: [formula]
row,Compound,Binding inhibition activity (%)
1,EEERKFQNSPAEDFQEPCQYSQESKG-NH2 [Example 23],58%
2,C[C@H](NC(=O)[C@@H]1CCCN1C(=O)[C@H](CO)NC(=O)[C@H](CC(N)=O)NC(=O)[C@H](CCC(N)=O)NC(=O)[C@H](Cc1ccccc1)NC(=O)[C@H](CCCCN)NC(=O)[C@H](CCCNC(=N)N)NC(=O)CCCCCCCCCCCCCCCCCN)C(=O)N[C@@H](CCC(=O)O)C(=O)N[C@@H](CC(=O)O)C(=O)N[C@@H](Cc1ccccc1)C(=O)N[C@@H](CCC(N)=O)C(=O)N[C@@H](CCC(=O)O)C(=O)N1CCC[C@H]1C(=O)N[C@@H](CS)C(=O)N[C@@H](CCC(N)=O)C(=O)N[C@@H](Cc1ccc(O)cc1)C(=O)N[C@@H](CO)C(=O)N[C@@H](CCC(N)=O)C(=O)N[C@@H](CCC(=O)O)C(=O)N[C@@H](CO)C(=O)NCC(=O)O [Example 20] (X1-RKFQNSPAEDFQEPCQYSQESG-OH),65%
3,QDPHSWNSSFYRLRFELRYRAERSK [Example 85],60%
4,CC(C)C[C@H](NC(=O)[C@H](CCC(=O)O)NC(=O)[C@H](Cc1ccccc1)NC(=O)[C@H](CCCNC(=N)N)NC(=O)[C@H](CC(C)C)NC(=O)[C@H](CCCNC(=N)N)NC(=O)[C@H](Cc1ccc(O)cc1)NC(=O)[C@H](Cc1ccccc1)NC(=O)[C@H](CO)NC(=O)[C@H](CO)NC(=O)[C@H](CC(N)=O)NC(=O)[C@H](Cc1c[nH]c2ccccc12)NC(=O)[C@H](CO)NC(=O)[C@H](Cc1c[nH]cn1)NC(=O)[C@@H]1CCCN1C(=O)[C@H](CC(=O)O)NC(=O)CCCCCCCCCCCN)C(=O)N[C@@H](CCCNC(=N)N)C(=O)N[C@@H](Cc1ccc(O)cc1)C(=O)N[C@@H](CCCNC(=N)N)C(=O)N[C@@H](C)C(=O)N[C@@H](CCC(=O)O)C(=O)N[C@@H](CCCNC(=N)N)C(=O)N[C@@H](CO)C(=O)N[C@@H](CCCCN)C(=O)N[C@@H](CCC(=O)O)C(=O)N[C@@H](CCC(=O)O)C(=O)N[C@@H](CCC(=O)O)C(=O)N[C@@H](CCC(=O)O)C(=O)N[C@@H](CCC(=O)O)C(=O)O [Example 75] (H-[12Ado]DPHSWNSSFYRLRFELRYRAERSKEEEEE-OH),63%
5,KKQALTTNKDDDNILFRDSA [Example 26],42%
6,GTVHLLVDVPPEEPQLSCFRKK [Example 9],30%
7,GTVHLLVDVPPEEPQLSCFRK [Example 13],25%
8,KKWNSSFYRLRFELRYRAERSK [Example 34],55%
9,EEEQDPHSWNSSFYRLRFELRYRAERSKKG-NH2 [Example 87],72%
10,DDDDDGTVHLLVDVPPEEPQLSCFRKAAG-NH2 [Example 16],31%
11,CC(C)C[C@H](NC(=O)[C@@H](NC(=O)[C@@H](NC(=O)[C@H](CO)NC(=O)[C@H](CC(=O)O)NC(=O)CNC(=O)[C@@H]1CCCN1C(=O)[C@H](CC(C)C)NC(=O)[C@H](CO)NC(=O)[C@@H](NC(=O)CCCCCCCCCCCCCCCCCN)[C@@H](C)O)C(C)C)[C@@H](C)O)C(=O)N[C@H](C(=O)N[C@@H](CS)C(=O)N1CCC[C@H]1C(=O)NCC(=O)N[C@H](C(=O)N[C@@H](CCC(=O)O)C(=O)N1CCC[C@H]1C(=O)N[C@@H](CCC(=O)O)C(=O)N[C@@H](CC(=O)O)C(=O)NCC(=O)O)C(C)C)[C@@H](C)O [Example 4] (X1-TSLPGDSVTLTCPGVEPEDG-OH),42%
12,DPHSWNSSFYRLRFELRYRAERSKK [Example 73],71%
13,DDDDDWQDPHSWNSSFYRLRFELRYRAERSKAAG-NH2 [Example 96],52%
14,KKGTVHLLVDVPPEEPQLSCFRK [Example 10],28%
